Data taken from US10344001B2, “Azolylacryloyl derivatives as therapeutic agents for sickle cell disease” (VIRGINIA COMMONWEALTH UNIVERSITY, priority 2015, dated 2019).

What was measured:
Hb in normal whole blood = biological target: T1, Hb in normal whole blood (Homo sapiens, UniProt P68871+P69905); test: Oxygen equilibrium curve (OEC) study in normal whole blood, multipoint tonometry; format: cell-based; settings: hematocrit 20%, 1.5 h at 37° C.
T1 construct: Normal whole blood was collected from adult donors at the Virginia Commonwealth University; endogenous in cells; host or cells: erythrocytes in normal adult human whole blood (hematocrit 20%)
T1 sequence (P69905 2-142 limits assumed): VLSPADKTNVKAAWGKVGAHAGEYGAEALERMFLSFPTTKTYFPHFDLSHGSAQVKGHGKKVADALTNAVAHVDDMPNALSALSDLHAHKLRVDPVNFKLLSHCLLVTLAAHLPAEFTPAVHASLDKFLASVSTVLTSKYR
T1 sequence (P68871 2-147 limits assumed): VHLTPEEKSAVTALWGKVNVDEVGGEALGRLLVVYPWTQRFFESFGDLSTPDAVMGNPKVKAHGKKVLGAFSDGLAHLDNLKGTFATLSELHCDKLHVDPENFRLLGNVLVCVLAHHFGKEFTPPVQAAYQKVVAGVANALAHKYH
Text: (§1) De-identified, leftover EDTA venous blood samples from patients with SCD who visited The Children's Hospital of Philadelphia for routine clinic visits, were obtained after informed consent and used for antisickling study. Normal whole blood was collected from adult donors at the Virginia Commonwealth University after informed consent and used for oxygen equilibrium curve study. Hb was purified from discarded normal blood samples following published procedure and used for OEC study^34. The use of these human samples is in accordance with regulations of the IRB for Protection of Human Subjects.
The ability of the KAUS compounds to left-shift the OEC (stabilize the R-state and/or destabilize the T-state) and increase the oxygen affinity of Hb in normal whole blood or free human hemoglobin was determined by multipoint tonometry as previously reported^20. First, cell free normal human hemoglobin (1 mM) or normal whole blood (hematocrit of 20%) was incubated with 1 mM or 2 mM final test compound (KAUS-28, KAUS-29, KAUS-33, KAUS-38 or KAUS-39) for 1.5 h at 37° C. Following incubation, the mixture was equilibrated in a tonometer with oxygen tensions of 6, 20 and 60 mmHg for 10 min each, and pO2 (mmHg) and sO2 (%) values were measured thereafter using ABL 700 series automated blood gas analyzer (Radiometer America, Inc., Westlake, Ohio). The measured values of pO2 and sO2 at each oxygen tension level were then subjected to a non-linear regression analysis using the program Scientist (Micromath, Salt Lake City, Utah) to calculate P50 and the Hill coefficient (N) values. Time-dependent OEC studies (1 hr, 4 hr, 8 hr and 12 hr) were also performed for KAUS-28, KAUS-33, KAUS-38, and KAUS-39 at final compound concentration of 2 mM. ECA and the previously studied azolylacryloyl-carboxylate derivative, KAUS-15 were used as positive controls. Compounds were dissolved in DMSO to make 100-250 mM stock solutions, and DMSO was used in all control samples. All OEC studies were performed in duplicates.

[1] = Reactivity toward free L-cysteine (UPLC-MS of compound and adduct); settings: incubated with L-Cys for 3 hours; for Ratio of Cpd/Adduct (Adduct peak): share of L-cysteine adduct peak; for Ratio of Cpd/Adduct (Compound peak): share of unreacted compound peak; for Reactivity with L-Cys (adduct share): values in text
Text: The above synthesized KAUS compounds were expected to covalently bind to Hb through a Michael addition reaction with the βCys93 at the surface of the protein to effect their allosteric and antisickling activities. We therefore investigated L-Cys conjugates with KAUS-28, KAUS-29, KAUS-33, KAUS-38 and KAUS-39 with ECA as a positive control using UPLC-MS analysis as previously described^20 with an Acquity H-Class UPLC which is connected to a PDA detector and an Acquity TQD detector. The column used was an Acquity UPLC BEH C18 1.7 μm, 2.1×50 mm, with a Vanguard pre-column attached. Solvent A consisted of water with 0.02% formic acid, while solvent B consisted of 90:10 acetonitrile:water with 0.02% formic acid. A gradient run was performed such that solvent B was increased from 0% B to 100% B from time 0-5 mins, followed by 3 minute wash at 100% B and then a return and re-equilibration at 100% A in the next 4 mins. The flow rate was maintained at 0.5 ml/min throughout the run. 2 μL of sample was injected per run. […] The eluent was then introduced into the TQD detector. The TQD detector was set at positive ionization mode with a capillary voltage of 3.20 kV, cone voltage of 20 V, extractor voltage of 1 V, and RF lens voltage of 0.1 V. The source temperature was set at 150° C., while the desolvation temperature was set at 350° C. and the desolvation and cone gas flows were set at 650 and 50 L/hr respectively. Scans were made from 100-700 m/z with scan duration of 0.5 seconds to obtain mass spectra at different time points.

[2] = system: SS cells (sickle red blood cells); test: RBC morphological antisickling study under hypoxic condition; format: cell-based, human; settings: 2 mM compound, 1 hr under air, then 4% oxygen/96% nitrogen at 37° C. for 5 hrs; for inhibition at 2000 µM: Homo sapiens, Erythrocyte, read-out: Reduction (inhibition) of RBC sickling
Text: as §1
KAUS-38 and KAUS-39 at 2 mM concentrations were tested for their abilities to prevent RBC sickling under hypoxic condition following previously reported assay^20. Briefly SS cells were suspended in Hemox buffer (TCS Scientific Corp, Southampton, Pa.), pH 7.4, that contained 10 mM glucose and 0.2% bovine serum albumin. The solution was incubated under air in the absence (control) or presence of […] 2 mM concentration of test compound at 37° C. for 1 hr. Following, the suspension was incubated under hypoxic condition (4% oxygen/96% nitrogen) at 37° C. for 5 hrs. The suspension was fixed with 2% glutaraldehyde solution without exposure to air and then subjected to microscopic morphological analysis as previously reported […]

[3] = biological target: T2, cell free normal human hemoglobin (Homo sapiens, UniProt P68871+P69905); test: Oxygen equilibrium curve (OEC) study with cell free hemoglobin, multipoint tonometry; format: biochemical; settings: cell free normal human hemoglobin 1 mM; 1 mM or 2 mM compound
T2 construct: Hb was purified from discarded normal blood samples following published procedure and used for OEC study; from tissue; host or cells: discarded normal human blood samples
T2 sequence (P69905 2-142 limits assumed): as the sequence (P69905 2-142 limits assumed) above
T2 sequence (P68871 2-147 limits assumed): as the sequence (P68871 2-147 limits assumed) above
Text: as §1
The ability of the KAUS compounds to left-shift the OEC (stabilize the R-state and/or destabilize the T-state) and increase the oxygen affinity of Hb in normal whole blood or free human hemoglobin was determined by multipoint tonometry as previously reported^20. […] Following incubation, the mixture was equilibrated in a tonometer with oxygen tensions of 6, 20 and 60 mmHg for 10 min each, and pO2 (mmHg) and sO2 (%) values were measured thereafter using ABL 700 series automated blood gas analyzer (Radiometer America, Inc., Westlake, Ohio). The measured values of pO2 and sO2 at each oxygen tension level were then subjected to a non-linear regression analysis using the program Scientist (Micromath, Salt Lake City, Utah) to calculate P50 and the Hill coefficient (N) values. […]

| OEC effect (increase of Hb affinity for oxygen, left shift) (Hb in normal whole blood; 1 mM compound) [%] | OEC effect (increase of Hb affinity for oxygen, left shift) (Hb in normal whole blood; 2 mM compound) [%] | melting point | Structure (SMILES) | Ratio of Cpd/Adduct (Adduct peak) [1] | Ratio of Cpd/Adduct (Compound peak) [1] | Reactivity with L-Cys (adduct share) [1] [%] | inhibition at 2000 µM [2] [%] | Effect on Hb affinity for oxygen in cell free Hb (in words) [3] | Reduction (inhibition) of RBC sickling [2] [%] |
| --- | --- | --- | --- | --- | --- | --- | --- | --- | --- |
| 9.9 | 16.5 |  | O=C(/C=C/c1ncc[nH]1)c1ccc(OC2CCCCO2)cc1 (stereo not shown) [KAUS-33, (E)-3-(1H-imidazol-2-yl)-1-(4-((tetrahydro-2H-pyran-2-yl)oxy)phenyl)prop-2-en-1-one] | 24.8 | 75.2 | 24.8 |  |  |  |
| 6.1 | 21.3 |  | C=C(CC)C(=O)c1ccc(OCC(=O)O)c(Cl)c1Cl [Ethacrynic Acid, ethacrynic acid, reference compound] | 96.3 | 3.7 |  | 18 |  |  |
| 1 | 7 |  | O=C(O)CCCOc1ccc(C(=O)/C=C/c2ncc[nH]2)cc1Cl [KAUS-15, reference compound] |  |  |  |  | significantly more potent effect with cell free Hb than with whole blood | 6 |
| 8 | 14 |  | COc1ccc(C(=O)/C=C/c2ncc[nH]2)cc1 [KAUS-38, (E)-3-(1H-imidazol-2-yl)-1-(4-methoxyphenyl)prop-2-en-1-one] | 37.8 | 62.2 | 37.8 | 18 |  |  |
|  |  | > 250 °C (dec.) | COc1cc(C(=O)/C=C/c2ncc[nH]2)ccc1O [KAUS-36, (E)-1-(4-hydroxy-3-methoxyphenyl)-3-(1H-imidazol-2-yl)prop-2-en-1-one] |  |  |  |  |  |  |
|  |  | > 250 °C (dec.) | O=C(/C=C/c1ncc[nH]1)c1ccc(OCc2ccccc2)cc1 [KAUS-34, (E)-1-(4-(benzyloxy)phenyl)-3-(1H-imidazol-2-yl)prop-2-en-1-one] |  |  |  |  |  |  |
|  |  | 222 to 223 °C | COc1ccc(C(=O)/C=C/c2ncc[nH]2)cc1OC [KAUS-39, (E)-1-(3,4-dimethoxyphenyl)-3-(1H-imidazol-2-yl)prop-2-en-1-one] | 27.2 | 72.8 | 27.2 | 5 |  |  |
|  |  |  | O=C(/C=C/c1ncc[nH]1)c1ccccc1 [KAUS-28, (E)-3-(1H-imidazol-2-yl)-1-phenylprop-2-en-1-one] | 6.9 | 93.1 |  |  |  |  |
|  |  | 250 to 253 °C | O=C(/C=C/c1ncc[nH]1)c1ccc(O)cc1 [KAUS-32, (E)-1-(4-hydroxyphenyl)-3-(1H-imidazol-2-yl)prop-2-en-1-one] |  |  |  |  |  |  |
| 8 | 14 |  | COc1cccc(C(=O)/C=C/c2ncc[nH]2)c1 [KAUS-29, (E)-3-(1H-imidazol-2-yl)-1-(3-methoxyphenyl)prop-2-en-1-one] | 2.1 | 97.9 |  |  |  |  |
